Data taken from patent US8957086B2, “Compounds and methods of treating brain disorders” (The Board of Trustees of the University of Illinois, priority 2010, dated 2015).
“Also recorded” adds a separate entry of the source.

Columns and labels:
[1] = test system: TNF-α; experiment: TNF-α ELISA on cortical/hippocampal protein homogenates of LaFerla 3×Tg AD mice; type: in vivo; details: 11 week treatment
Text: (§1) Amyloid load also was reduced by drug treatment (data not shown).

[2] = test system: LaFerla 3×Tg AD Mice; experiment: STPA latency in LaFerla 3×Tg AD mice after 11 week treatment; type: in vivo; details: for latency after 24 h in STPA: 11 week treatment
[3] = test system: CREB phosphorylated at serine 133; experiment: CREB phosphorylated at serine 133 in LaFerla 3×Tg AD mice; type: in vivo; details: 11 week treatment
Text: as §1

[4] = test system: primary cortical cultures treated with human Aβ1-42; experiment: Neuroprotection in primary neurons treated with Aβ42 oligomers, with picrotoxin preincubation (MTT, LDH); type: cell-based; details: 100 μM picrotoxin 1 h preincubation, test compounds 50 μM, Aβ1-42 250 nM, 5 days
Method: FIGS. 3A and 3B illustrate neuroprotection in response to amyloid neurotoxicity afforded by compounds of structural formula (I). FIGS. 3A and 3B show neuroprotection in primary neurons treated with Aβ42. In particular, primary cortical cultures at 10-11 DIV were preincubated with 100 μM of picrotoxin for one hour, then perfused with test compounds at 50 μM. Soluble oligomers of human Aβ1-42 then were added at a physiologically relevant concentration of 250 nM. Cultures then were incubated for 5 days, after which time MTT and LDH assays were performed. Results were normalized to untreated DMSO and treated DMSO and statistical analysis was performed with ANOVA, with post-hoc Dunnet's MCT comparing to untreated DMSO, […], ***=p<0.001. Picrotoxin acts as a noncompetitive antagonist for the GABAA receptor chloride channels. It is therefore a channel blocker rather than a receptor antagonist.

[5] = Stability in phosphate buffer (pH 7.4) monitored using HPLC; type: physicochemical; details: pH 7.4, HPLC
Text: The stability of compounds of structural formula (II) in phosphate buffer (pH 7.4) was monitored using HPLC.

[6] = Brain penetration in WT mice after i.p. injection, LC-MS (MRM); type: in vivo; details: i.p. 1 mg/kg, S/N ratio
Method: Compounds of structural formula (II), i.e., GN-29 and GN-205, were tested for an ability to penetrate the brain. WT mice were given an i.p. injection at a dose of 1 mg/kg, which is equivalent to transgenic mice studies. The presence of drugs in brain tissue was measured by LC-MS using MRM methods.

[7] = test system: primary rat cortical neuron cultures; experiment: Neuroprotection in primary rat cortical neuron cultures subjected to oxygen-glucose deprivation (OGD), MTT and LDH; type: cell-based; details: primary cultured rat cortical neurons, OGD 2 h + 24 h reoxygenation, 50 μM
Method: Neuroprotection by compounds of structural formula (I) in neurons using oxygen-glucose deprivation (OGD) followed by recovery for 24 hours in primary rat cortical neuron cultures, measured by LDH release and MTT viability was determined (FIG. 1).
Test compounds are compared to vehicle controls and the known neuroprotective agent CMZ. DMSO is dimethyl sulfoxide. Neuroprotection is represented by (i) a high cell viability relative to control as measured by the MIT assay and (ii) a low LDH activity as measured by assay of LDH. The abscissa in FIGS. 1A and 1B identify the compounds tested by GN number. The structures of AR-OH (also referred to as #00) and AR-N3 (also referred to as #9 or GN-9) are provided above. The structure of AR (also referred to as #10) and CMZ are as follows: […]
FIG. 1A illustrates the evaluation of neuroprotection in primary neurons subject to transient OGD assayed by MTT. […] Cell viability was measured 24 hours after reperfusion by MTT assay. Cell viability percentage was calculated relative to 100% protection from CMZ against OGD-reperfusion injury. […]
FIG. 1B illustrates the evaluation of neuroprotection in primary rat neurons subject to transient OGD assayed by LDH. […] Cell viability was measured 24 hours after reperusion by […]. Cell viability percentage was calculated relative to 100% cytoxicity from OGD-reperfusion in the presence of vehicle (DMSO). […]

[8] = test system: primary rat glial cultures; experiment: Attenuation of inflammatory response (nitrite production, Griess assay) in LPS-treated primary rat glial cultures; type: cell-based; details: primary rat glial cells, LPS/OGD, nitrite by Griess assay
Method: Attenuation of cytokine and inflammatory response by compounds of structural formula (I) were measured by induction of NOS reflected by inhibition of nitrite production in LPS/IFNγ treated primary rat glial cultures.
Primary mixed glia cultures were obtained as described previously (Vairano et al., 2002). Briefly, 1-2 day old Sprague Dawley rat pups were used to prepare primary mixed glial cultures. Cortices were dissected and meninges were removed. Tissues were cut into small pieces and transferred into PBS (without Ca^2+ and Mg^2+) containing 0.125% Trypsin and DNAse 35500 KU/ml, then incubated at 37° C. for 20 min. The cells were dissociated mechanically resuspended in DMEM (10% FBS), then grown in a T-75 flask. After 11-13 days in culture, the cells were replated at 2×10^5 cells/cm^2 in 96-well plates. Cells were used the next day.
Primary cultured cortical glia were incubated with LPS ([…]) in deoxygenated, glucose-free solution, pH 7.4, containing the following (in mM): NaCl 116, CaCl2 1.8, MgSO4 0.8, KCl 5.4, NaH2PO4 1, NaHCO3 14.7, HEPES 10. The cells were placed in a humidified 37° C. incubator (95% N2, 5% CO2) for 2 hours, then conditioned DMEM media containing LPS or PBS were given back to the cells. The tested compounds ([…]) or MAPK inhibitor (SB203580, […]) were present during and after the OGD. […] Cell viability was measured later by MTT assay. […]

[9] = test system: scopolamine treated mice; experiment: Step through passive avoidance (STPA) in scopolamine treated mice; type: in vivo; details: i.p.
Text: The scopolamine treatment results in mice having an attenuated cognitive function. STPA (step through passive avoidance task) is widely used to test long-term memory. The STPA apparatus consists of a two-compartment acrylic box with an illuminated side (15×12×12 cm) connected to a dark side (15×12×12 cm) by a vertical door. The dark side is equipped with an electric grid floor. During the habituation, animals were habituated to the normal behavior of rapidly translocating to the dark from the light side, where they were initially placed. Habituation trials are continued until latency of entering the dark side for each animal is less than 30 seconds. Animals that cannot pass this screening phase are excluded from the study. During the training, animals were trained by receiving an aversive electrical shock (0.5 mA, 2 sec), triggered by entry to the dark compartment, until the latency of entering the dark side reach 300 seconds. At 24 and 72 hours post-training, the animals again are individually placed in the light compartment and the latency to enter the dark compartment, without shock stimulus, is recorded. Statistical analysis of the latency data was performed with one-way ANOVA followed by Bonferroni multiple comparison test. For STPA tests using naïve animals, each animal was administered two ip injections. […]

Cc1ncsc1CC[N+](=O)[O-] [GT-1061, reference compound]
levels of TNF-α [1]: 2.18±0.34 μg/mg protein | latency after 24 h in STPA [2]: 248 ± 35 s | levels of CREB phosphorylated at serine 133 [3]: 1.07±0.11 units/mg protein

picrotoxin
effect of picrotoxin on neuroprotection by test compounds [4]: blocks the neuroprotective actions of the test compounds

Cc1ncsc1C(NC(=O)C1(CO[N+](=O)[O-])CC1)c1ccccc1 (stereo not shown) [GN-44]
stability in phosphate buffer [5]: excellent stability

Cc1ncsc1C(NC(=O)OCCCCO[N+](=O)[O-])c1ccccc1 (stereo not shown) [GN-203]
stability in phosphate buffer [5]: excellent stability

Cc1ncsc1C(CO[N+](=O)[O-])n1cc(-c2cccnc2)nn1 (stereo not shown) [GN-205]
presence in brain tissue (bioavailability in the brain) [6]: highly bioavailable in the brain

Cc1ncsc1C(CO[N+](=O)[O-])c1ccccc1 (stereo not shown) [GN-29]
presence in brain tissue (bioavailability in the brain) [6]: highly bioavailable in the brain | levels of TNF-α [1]: 1.70±0.09 μg/mg protein | latency after 24 h in STPA [2]: 277 ± 14 s | cognitive deficit in the transgenic mouse model ([2]; in words): reverses a cognitive deficit | levels of CREB phosphorylated at serine 133 [3]: 1.2±0.16 units/mg protein

Cc1ncsc1C(OCCOCCO[N+](=O)[O-])c1ccccc1 (stereo not shown) [GM-30]
stability in phosphate buffer [5]: excellent stability

Cc1ncsc1C(c1ccccc1)n1cc(-c2cccnc2)nn1 (stereo not shown) [GN-12]
neuroprotection [7]: substantial neuroprotection; also recorded: superior neuroprotective and anti-neuroinflammatory activities | attenuation of inflammatory response [8]: attenuation of inflammatory response; also recorded: superior neuroprotective and anti-neuroinflammatory activities | reversal of cognition deficit (STPA) [9]: reverse a cognition deficit
